The source made the active and inactive calls. No cut-off for these calls is given here.
What was measured:
NADPH oxidase 4 = molecular target: T1, NADPH oxidase 4 (Homo sapiens, UniProt Q9NPH5); experiment: Inhibition of human Nox4 expressed in COS7 cells assessed as inhibition of PMA-induced H2O2 production by amplex red dye based fluorescence assay; assay type: cell-based; settings: cos-7
T1 sequence (Q9NPH5 whole entry): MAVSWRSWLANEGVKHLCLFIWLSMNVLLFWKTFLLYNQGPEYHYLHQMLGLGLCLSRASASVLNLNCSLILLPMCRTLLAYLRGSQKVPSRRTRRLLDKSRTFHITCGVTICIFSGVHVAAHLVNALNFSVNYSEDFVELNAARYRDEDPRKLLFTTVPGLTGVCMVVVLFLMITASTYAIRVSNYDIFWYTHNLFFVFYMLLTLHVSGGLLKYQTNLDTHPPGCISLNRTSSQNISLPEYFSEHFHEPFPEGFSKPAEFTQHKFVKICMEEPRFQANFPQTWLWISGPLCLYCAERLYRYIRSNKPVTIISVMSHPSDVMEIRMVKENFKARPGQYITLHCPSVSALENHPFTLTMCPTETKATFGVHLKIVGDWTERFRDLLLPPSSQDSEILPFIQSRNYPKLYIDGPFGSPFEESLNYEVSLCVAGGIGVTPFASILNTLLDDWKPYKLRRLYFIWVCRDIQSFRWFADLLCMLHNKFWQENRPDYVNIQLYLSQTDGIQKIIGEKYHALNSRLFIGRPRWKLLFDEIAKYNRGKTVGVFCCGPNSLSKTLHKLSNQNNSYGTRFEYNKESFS

[1] = molecular target: Xanthine dehydrogenase/oxidase (Bos taurus, UniProt P80457); experiment: Inhibition of bovine xanthine-oxidase assessed as H2O2 production at 25 to 50 uM by amplex red dye based fluorescence assay; settings: cattle
Chain of Xanthine dehydrogenase/oxidase (P80457 whole entry): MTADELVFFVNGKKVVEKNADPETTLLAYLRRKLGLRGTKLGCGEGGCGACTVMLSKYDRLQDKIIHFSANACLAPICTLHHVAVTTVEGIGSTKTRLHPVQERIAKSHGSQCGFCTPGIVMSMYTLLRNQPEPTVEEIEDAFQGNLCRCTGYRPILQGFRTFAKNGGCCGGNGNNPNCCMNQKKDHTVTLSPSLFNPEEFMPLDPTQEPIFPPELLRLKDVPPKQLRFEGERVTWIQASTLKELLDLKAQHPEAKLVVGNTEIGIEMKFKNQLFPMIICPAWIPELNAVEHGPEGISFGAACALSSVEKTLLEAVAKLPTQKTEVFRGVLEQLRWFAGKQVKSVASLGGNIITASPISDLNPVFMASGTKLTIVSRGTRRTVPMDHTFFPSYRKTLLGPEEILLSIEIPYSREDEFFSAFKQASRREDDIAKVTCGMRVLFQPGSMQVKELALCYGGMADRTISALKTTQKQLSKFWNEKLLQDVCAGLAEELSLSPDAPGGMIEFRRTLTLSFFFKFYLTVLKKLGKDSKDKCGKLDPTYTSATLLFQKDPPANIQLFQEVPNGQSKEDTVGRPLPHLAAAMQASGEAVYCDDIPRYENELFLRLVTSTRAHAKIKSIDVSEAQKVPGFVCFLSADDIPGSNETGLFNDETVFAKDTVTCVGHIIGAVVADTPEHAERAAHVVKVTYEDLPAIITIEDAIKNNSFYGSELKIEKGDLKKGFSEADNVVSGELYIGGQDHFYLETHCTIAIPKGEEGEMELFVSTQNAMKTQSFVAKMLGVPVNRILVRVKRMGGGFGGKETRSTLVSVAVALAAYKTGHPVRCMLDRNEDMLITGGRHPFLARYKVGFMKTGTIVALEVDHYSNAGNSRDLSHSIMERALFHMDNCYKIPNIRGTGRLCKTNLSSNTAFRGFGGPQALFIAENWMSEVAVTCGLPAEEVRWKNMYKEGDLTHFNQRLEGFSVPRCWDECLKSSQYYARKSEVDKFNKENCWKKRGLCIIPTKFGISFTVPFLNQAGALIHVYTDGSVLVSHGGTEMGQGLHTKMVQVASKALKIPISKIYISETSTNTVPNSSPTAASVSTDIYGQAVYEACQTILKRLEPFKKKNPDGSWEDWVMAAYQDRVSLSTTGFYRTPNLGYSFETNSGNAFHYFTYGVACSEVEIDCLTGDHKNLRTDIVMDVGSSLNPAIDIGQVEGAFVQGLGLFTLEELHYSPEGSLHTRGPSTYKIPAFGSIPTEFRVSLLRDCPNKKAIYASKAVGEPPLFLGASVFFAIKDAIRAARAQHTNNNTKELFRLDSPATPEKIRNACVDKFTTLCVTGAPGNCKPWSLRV

[2] = Cytotoxicity against african green monkey COS7 cells at high concentration for 15 mins by fluorescence analysis; assay type: cell-based; settings: chlorocebus aethiops, cos-7, 0.25 h
[3] = molecular target: T2, NADPH oxidase 2 (Homo sapiens) (UniProt P04839); experiment: Inhibition of human Nox2 expressed in COS7 cells co-transfected with human p22-phox,p47phox and p67-phox assessed as inhibition of LiDS-induced superoxide generation at 6.3 uM preincubated for 15 mins followed by addition of LiDS and NADPH; assay type: cell-based; settings: COS-7
T2 sequence (whole entry): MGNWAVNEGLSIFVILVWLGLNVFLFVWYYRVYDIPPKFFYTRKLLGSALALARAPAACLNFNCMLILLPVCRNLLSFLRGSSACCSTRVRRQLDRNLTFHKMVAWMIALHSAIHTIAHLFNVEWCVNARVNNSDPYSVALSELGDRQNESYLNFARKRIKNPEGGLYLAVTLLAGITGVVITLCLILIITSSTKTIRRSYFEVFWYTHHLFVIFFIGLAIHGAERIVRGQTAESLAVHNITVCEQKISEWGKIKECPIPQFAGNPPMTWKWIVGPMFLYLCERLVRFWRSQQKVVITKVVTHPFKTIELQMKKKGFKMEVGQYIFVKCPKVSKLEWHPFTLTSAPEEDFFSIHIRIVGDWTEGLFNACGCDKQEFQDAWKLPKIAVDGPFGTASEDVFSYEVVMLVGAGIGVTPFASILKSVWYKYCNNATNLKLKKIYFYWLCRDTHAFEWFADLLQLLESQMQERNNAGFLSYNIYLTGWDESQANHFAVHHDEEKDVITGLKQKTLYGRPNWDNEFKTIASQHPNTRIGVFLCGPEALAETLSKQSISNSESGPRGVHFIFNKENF

HPAEC [4] = experiment: Inhibition of high-glucose-stimulated superoxide production in HPAEC cells at 25 uM measured after 24 hrs; assay type: functional, cell-based; settings: Homo sapiens
HPAEC [5] = experiment: Inhibition of angiotensin-2-stimulated superoxide production in HPAEC cells at 25 uM measured after 24 hrs; assay type: functional, cell-based; settings: Homo sapiens
[6] = molecular target: T2, NADPH oxidase 2 (Homo sapiens); experiment: Inhibition of human Nox2 expressed in COS7 cells co-transfected with human p22-phox,p47phox and p67-phox assessed as inhibition of PMA-induced ROS production at 10 uM; assay type: cell-based; settings: COS-7
[7] = molecular target: T3, NADPH oxidase 1 (Homo sapiens) (UniProt Q9Y5S8); experiment: Inhibition of human Nox1 expressed in COS7 cells co-transfected with human co-transfected with human NOXO1/NOXA1 assessed as inhibition of PMA-induced ROS production at 10 uM; assay type: cell-based; settings: COS-7
T3 sequence (whole entry): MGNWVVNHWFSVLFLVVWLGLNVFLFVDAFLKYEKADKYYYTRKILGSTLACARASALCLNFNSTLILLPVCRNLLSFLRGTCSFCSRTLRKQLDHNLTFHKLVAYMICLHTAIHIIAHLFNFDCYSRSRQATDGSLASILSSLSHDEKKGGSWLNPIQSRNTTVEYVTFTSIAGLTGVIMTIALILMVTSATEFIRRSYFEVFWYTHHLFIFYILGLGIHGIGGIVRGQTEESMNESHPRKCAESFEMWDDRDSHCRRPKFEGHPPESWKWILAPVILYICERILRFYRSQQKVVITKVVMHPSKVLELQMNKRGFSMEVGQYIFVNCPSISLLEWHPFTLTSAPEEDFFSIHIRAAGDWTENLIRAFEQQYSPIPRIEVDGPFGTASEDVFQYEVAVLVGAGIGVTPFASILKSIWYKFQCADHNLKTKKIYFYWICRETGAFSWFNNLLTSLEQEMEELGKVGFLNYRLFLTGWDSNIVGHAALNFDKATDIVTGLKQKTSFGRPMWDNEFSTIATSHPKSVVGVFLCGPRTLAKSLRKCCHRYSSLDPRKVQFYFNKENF

Cardiac muscle cell [8] = experiment: Inhibition of high-glucose-stimulated ROS production in rat cardiomyocyte at 25 uM; assay type: functional
Cardiac muscle cell [9] = experiment: Inhibition of high-glucose-stimulated hypertrophy in rat cardiomyocyte at 25 uM; assay type: functional
Fibroblast = experiment: Inhibition of PMA-induced ROS production in human fibroblast at 10 uM; assay type: functional, cell-based
NADPH oxidase 2 [10] = molecular target: T4, NADPH oxidase 2 (Homo sapiens, UniProt P04839); experiment: Inhibition of human Nox2 expressed in COS7 cells co-transfected with human p22-phox,p47phox and p67-phox assessed as inhibition of PMA-induced superoxide generation by L-012 chemiluminescence analysis; assay type: cell-based; settings: cos-7
T4 sequence (P04839 whole entry): T2 sequence (whole entry)

NADPH oxidase 2 [11] = molecular target: T4, NADPH oxidase 2; experiment: Inhibition of human Nox2 expressed in COS7 cells co-transfected with human p22-phox,p47phox and p67-phox assessed as inhibition of PMA-induced H2O2 production by amplex red dye based fluorescence assay; assay type: cell-based; settings: cos-7
NADPH oxidase 1 = molecular target: T5, NADPH oxidase 1 (Homo sapiens, UniProt Q9Y5S8); experiment: Inhibition of human Nox1 expressed in COS7 cells co-transfected with human NOXO1/NOXA1 assessed as inhibition of PMA-induced superoxide generation by L-012 chemiluminescence analysis; assay type: cell-based; settings: cos-7
T5 sequence (Q9Y5S8 whole entry): T3 sequence (whole entry)

Row | IC50 (NADPH oxidase 4) | inhibition (INH) [1] | SMILES | other results
1 | Not Active | Not Active | C=C(C)C[C@@H]1N[C@H]2CC(C)(C)[C@@H]1c1c(Br)ccc(Br)c12 | Activity [2]: Toxic
2 | – | Not Active | C=C(C)CC1NC2CC(C)(C)C1c1c(Br)cccc12 (racemic) | inhibition [3]: Active; Activity [2]: Toxic
3 | – | Not Active | CC(C)CC1NC2CC(C)(C)C1c1c(Br)cccc12 (racemic) | Activity [2]: Toxic
4 | – | Not Active | C=C(C)CC1C2c3ccccc3C(CC2(C)C)N1Cc1cccc(F)c1 (racemic) | –
5 | Not Active | Not Active | C=C(C)CC1C2c3c(Br)cccc3C(CC2(C)C)N1Cc1ccnc2ccccc12 (racemic) | –
6 | Not Active | Not Active | C=C(C)CC1C2c3c(Br)cccc3C(CC2(C)C)N1Cc1c[nH]c2ccccc12 (racemic) | –
7 | – | Not Active | C=C(C)CC1C2c3c(Br)cccc3C(CC2(C)C)N1Cc1ccc2c(c1)OCO2 (racemic) | –
8 | – | Not Active | C=C(C)CC1C2c3c(Br)cccc3C(CC2(C)C)N1Cc1cc(C)on1 (racemic) | –
9 | – | Not Active | C=C(C)CC1C2c3c(Br)cccc3C(CC2(C)C)N1Cc1cccc(F)c1 (racemic) | –
10 | – | Not Active | C=C(C)CC1C2c3c(Br)cccc3C(CC2(C)C)N1CCCCC (racemic) | inhibition (HPAEC [4]): Active; inhibition (HPAEC [5]): inactive; inhibition [6]: Active; inhibition [7]: Active; inhibition (Cardiac muscle cell [8]): Active; inhibition (Cardiac muscle cell [9]): Active; inhibition (Fibroblast): Active
11 | – | Not Active | C=C(C)CC1NC2CC(C)(C)C1c1c(-c3ccc(Cl)c(Cl)c3)cccc12 (racemic) | –
12 | – | – | C=C(C)C[C@@H]1N[C@H]2CC(C)(C)[C@@H]1c1c(-c3cccnc3)cccc12 (racemic) | IC50 (NADPH oxidase 2 [10]): Not Active; IC50 (NADPH oxidase 2 [11]): Not Active
13 | Not Active | Not Active | C=C(C)CC1C2c3c(-c4ccc(Cl)c(Cl)c4)cccc3C(CC2(C)C)N1Cc1ccc2c(c1)OCO2 (racemic) | –
14 | – | Not Active | C=C(C)CC1C2c3c(-c4ccc(Cl)c(Cl)c4)cccc3C(CC2(C)C)N1CCCCC (racemic) | –
15 | – | Not Active | C=C(C)CC1C2c3c(Br)cccc3C(CC2(C)C)N1S(C)(=O)=O (racemic) | IC50 (NADPH oxidase 1): Not Active
16 | Not Active | Not Active | C=C(C)CC1C2c3c(Br)cccc3C(CC2(C)C)N1S(=O)(=O)c1ccc(F)cc1 (racemic) | –

Row | SMILES | IC50 (NADPH oxidase 4) | inhibition (INH) [1] | other results
17 | C=C(C)CC1NC2CC(C)(C)C1c1ccccc12 (racemic) | Not Active | Not Active | –

— ChEMBL document CHEMBL3727360, “Tetrahydroisoquinolines as selective nadph oxidase 2 inhibitors” (2014)
